Several values for one entry are separate records, joined by “and”; a condition that tells them apart may be missing. Equal entries are not always repeated.
What was measured:
[1] = test system: BK α subunits coexpressed with construct D20A; assay: Effect of pore blockers on β3a-mediated tail currents; type: cell-based, mSlo1 (mouse) with human β3a N-terminus on human β2; conditions: 10 μM Ca^2+; TBA 2 or 10 mM; bbTBA 200 and 400 μM
open BK channels = conditions: read-out: blocking affinity / Kd(0) for block of open BK channels; cited from earlier work
Shaker K^+ channels = conditions: cited from earlier work

SMILES	effect on β3a-mediated tail currents [1]	Kd (open BK channels)	effect on inactivation onset (Shaker K^+ channels)
CCCC[N+](CCCC)(CCCC)CCCC [TBA, tetrabutylammonium]	both peak tail current and tail current time constant were reduced	900 µM and ~900 µM	–
CC[N+](CC)(CC)CC [TEA, tetraethylammonium]	–	–	slow inactivation onset
